Test systems include KM12; SN12C; SW-620; A549; SK-MEL-5; SNB-19; SF-295; SF-539; K562; OVCAR-8; EKVX; UACC-62; SK-OV-3; IGROV-1; M14; RPMI-8226; UO-31; A498; SNB-75.
Common to all, as to test: NCI-60 cell line screen, 48 h

Consider twelve compounds from ChEMBL document CHEMBL1201862, “PubChem BioAssay data set” (2004).

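96-well plates; 48 h exposure; 5 concentrations. Endpoints by linear interpolation between flanking doses. Not reached: highest tested concentration assigned. GI50 is the concentration that inhibits growth by half.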 The source made the active and inactive calls. Rule as the data show it: active = GI50 up to about 1.1 µM and inactive = higher.

With `Cn1c(C2CCCc3c2c2ccccc2n3C)cc2ccccc21` (configuration not stated), the GI50 in the assay with KM12 was 30.6 µM (inactive); in the assay on SN12C, 222 µM (inactive); in the assay on SW-620 it was 78 µM (inactive); in the assay with A549, 128 µM (inactive); in the assay on SK-MEL-5, 72.9 µM (inactive); with SNB-19, > 318 µM (inactive). Besides, the GI50 was 70 µM (inactive) with SF-295; > 318 µM (inactive) with SF-539; 74 µM (inactive) in the assay with K562; > 318 µM (inactive) in the assay with OVCAR-8; 115 µM (inactive) in the assay with EKVX; 35.8 µM (inactive) in the assay on UACC-62. In addition, the figures for the GI50 in the assay with SK-OV-3 and with IGROV-1 were 100 µM (inactive) and 31.6 µM (inactive), respectively.
On to `O=c1c2cc([N+](=O)[O-])ccc2n2n1Cc1ccccc1CC2`, for which the GI50 in the assay on M14, in the assay on RPMI-8226, in the assay with KM12, in the assay with SN12C, in the assay with SW-620 and with UO-31 was > 100 µM (inactive) each time. Also, the GI50 in the assay on A549, with SK-MEL-5, in the assay with SNB-19, with SF-295, in the assay with A498 and in the assay on SF-539 was > 100 µM (inactive) in each case. Moreover, the GI50 is > 100 µM (inactive) in the assay on K562; > 100 µM (inactive) in the assay with OVCAR-8; 2.11 µM (inactive) in the assay with EKVX; > 100 µM (inactive) in the assay on UACC-62; > 100 µM (inactive) in the assay with SK-OV-3; > 100 µM (inactive) with IGROV-1.
In the case of `CCOC(=O)CCC(NC(=O)OCc1ccccc1)C(=O)NC(CCC(=O)OCC)C(=O)NC(CCC(=O)OCC)C(=O)NNC(=O)OC(C)(C)C` (configuration not stated), the GI50 with M14 was > 100 µM (inactive); in the assay with RPMI-8226 it was > 100 µM (inactive); with KM12 it was > 10 µM (inactive); in the assay on SN12C, > 100 µM (inactive); in the assay on SW-620, > 100 µM (inactive); in the assay with UO-31 it was > 100 µM (inactive). Further, the GI50 in the assay with A549, in the assay on SK-MEL-5, in the assay on SNB-19, in the assay on A498, in the assay on K562 and in the assay on OVCAR-8 was > 100 µM (inactive) in each case. In addition, the GI50 in the assay on EKVX, in the assay with UACC-62, in the assay on SNB-75 and in the assay on IGROV-1 was > 100 µM (inactive) each time.
For `COC(=O)/C(C#N)=C1\CCC(O)N1` (configuration not stated), the GI50 in the assay on M14, in the assay with RPMI-8226, with KM12, with SN12C, in the assay with SW-620 and with UO-31 was > 100 µM (inactive) throughout. Besides, the GI50 in the assay on A549, with SNB-19, with SF-295, with SF-539, in the assay on K562 and in the assay on OVCAR-8 was > 100 µM (inactive) each time. Also, the GI50 with EKVX, with UACC-62, with SNB-75, in the assay with SK-OV-3 and with IGROV-1 was > 100 µM (inactive) in each case.
As for `O=C(O)C1CCC(=O)N1C(=O)C(Cl)c1ccccc1` (configuration not stated), the GI50 with M14, in the assay with RPMI-8226, in the assay with KM12, in the assay with SN12C, in the assay with SW-620 and with UO-31 was > 100 µM (inactive) in each case. Also, the GI50 in the assay with A549, in the assay on SK-MEL-5, in the assay with SNB-19, with SF-295, in the assay on A498 and in the assay on K562 was > 100 µM (inactive) throughout. Further, the GI50 in the assay with OVCAR-8, in the assay with EKVX, in the assay on UACC-62, in the assay on SNB-75, with SK-OV-3 and in the assay with IGROV-1 was > 100 µM (inactive) in each case.
Consider `CC(SC(=S)Nc1cccc(F)c1)C(=O)O` (configuration not stated), for which the GI50 in the assay on M14 is 16.8 µM (inactive); with RPMI-8226 it was 15.6 µM (inactive); with KM12 it was > 10 µM (inactive); in the assay on SN12C it was 50.7 µM (inactive); with SW-620, 33.3 µM (inactive); with UO-31 it was 24.9 µM (inactive). In addition, the GI50 in the assay with A549 is 31.7 µM (inactive); with SNB-19, 29.4 µM (inactive); in the assay with SF-295, 23.9 µM (inactive); in the assay on A498 it was 26.7 µM (inactive); in the assay with SF-539 it was 18.3 µM (inactive); with K562 it was 15.6 µM (inactive). Besides, the GI50 in the assay with OVCAR-8 is 25.5 µM (inactive); in the assay on EKVX, 51.2 µM (inactive); in the assay with UACC-62, 19 µM (inactive); in the assay on IGROV-1, 3.85 µM (inactive).
With `Cc1c2c(ccc3ccccc32)c[n+]2ccccc12`, the GI50 with M14 was 19.7 µM (inactive); with RPMI-8226, 32.1 µM (inactive); with KM12, 1.09 µM (active); in the assay with SW-620, 5.5 µM (inactive); with UO-31, 20.9 µM (inactive); in the assay on A549 it was 1.44 µM (inactive). In addition, the GI50 with SK-MEL-5 was 3.56 µM (inactive); with SNB-19 it was 2.07 µM (inactive); with SF-295, 3.78 µM (inactive); in the assay with SF-539 it was 13.9 µM (inactive); with K562, 11.6 µM (inactive); in the assay with OVCAR-8, 12.4 µM (inactive). Besides, the GI50 in the assay with SNB-75 is 4.21 µM (inactive).
As to `CCCCCCCCCCCC(=O)CC(=O)c1c(O)cccc1O`, the GI50 in the assay on M14 is 18 µM (inactive); in the assay with RPMI-8226, 19.6 µM (inactive); in the assay with KM12, 17.5 µM (inactive); with SN12C it was 18.7 µM (inactive); in the assay on SW-620, 17.1 µM (inactive); in the assay on UO-31, 14.5 µM (inactive). In addition, the GI50 with A549 was 17.9 µM (inactive); in the assay with SK-MEL-5, 19.1 µM (inactive); in the assay on SNB-19 it was 20 µM (inactive); with SF-295, 19.4 µM (inactive); in the assay on SF-539, 18.5 µM (inactive); in the assay with K562 it was 26.9 µM (inactive). Further, the GI50 in the assay with OVCAR-8 was 16.6 µM (inactive); with EKVX, 17.8 µM (inactive); in the assay with UACC-62, 29.4 µM (inactive); in the assay with SNB-75 it was 19.4 µM (inactive); in the assay with SK-OV-3, 30.4 µM (inactive); with IGROV-1 it was 18.6 µM (inactive).
As to `Cc1nnc2n1N=C(CC(=O)c1ccc(O)cc1O)CN2N`, the GI50 in the assay on M14 is > 100 µM (inactive); in the assay on KM12, > 100 µM (inactive); in the assay with SN12C it was > 100 µM (inactive); with SW-620, 14.9 µM (inactive); in the assay with UO-31 it was > 100 µM (inactive); in the assay on A549, > 100 µM (inactive). For the same compound, the GI50 in the assay on SK-MEL-5, in the assay on SNB-19, in the assay with SF-295, with A498, in the assay with SF-539 and in the assay on K562 was > 100 µM (inactive) throughout. Besides, the GI50 in the assay on EKVX, in the assay on UACC-62, with SK-OV-3 and in the assay on IGROV-1 was > 100 µM (inactive) each time.
With `O=C(NC(=S)Nc1ccccc1)c1ccc([N+](=O)[O-])cc1`, the GI50 with M14 is > 100 µM (inactive); with RPMI-8226, 28.6 µM (inactive); in the assay on KM12, 3.46 µM (inactive); in the assay on SN12C, > 100 µM (inactive); in the assay on SW-620 it was > 100 µM (inactive); with UO-31, 45.8 µM (inactive). Also, the GI50 is 41.9 µM (inactive) in the assay with A549; 36 µM (inactive) in the assay on SK-MEL-5; 45.1 µM (inactive) with SF-295; 52 µM (inactive) in the assay with K562; > 100 µM (inactive) with OVCAR-8; > 100 µM (inactive) with EKVX. For the same compound, the GI50 in the assay on UACC-62 was 75.7 µM (inactive); with SNB-75, > 100 µM (inactive); in the assay on SK-OV-3 it was 50.1 µM (inactive); with IGROV-1 it was 71.9 µM (inactive).
`COc1ccc(C(=O)Nc2ccccc2C#N)cc1`: the GI50 in the assay with RPMI-8226, in the assay with KM12, in the assay with SN12C, in the assay with SW-620, in the assay on A549 and with SK-MEL-5 was > 100 µM (inactive) each time. Also, the GI50 in the assay with SNB-19, in the assay on SF-295, in the assay with A498, in the assay with SF-539, in the assay with K562 and with OVCAR-8 was > 100 µM (inactive) in each case. Besides, the GI50 in the assay on EKVX was > 100 µM (inactive); with UACC-62, > 100 µM (inactive); in the assay on SNB-75, 51.1 µM (inactive); in the assay on IGROV-1 it was > 100 µM (inactive).
In the case of `Cc1cc(OCC(=O)N/N=C/C(Br)=C/c2ccccc2)nc(SCC(=O)N/N=C/C(Br)=C/c2ccccc2)n1`, the GI50 is > 100 µM (inactive) in the assay with M14; 68.5 µM (inactive) in the assay on RPMI-8226; 39.9 µM (inactive) in the assay with KM12; > 100 µM (inactive) in the assay on SN12C; > 100 µM (inactive) in the assay on SW-620; > 100 µM (inactive) in the assay on UO-31. Besides, the GI50 with SK-MEL-5 was > 100 µM (inactive); in the assay on SNB-19 it was > 100 µM (inactive); in the assay with SF-295 it was > 100 µM (inactive); in the assay on A498, > 100 µM (inactive); in the assay with K562, > 100 µM (inactive); in the assay with EKVX, 80 µM (inactive). Also, the GI50 with UACC-62 is > 100 µM (inactive); with IGROV-1 it was 52.2 µM (inactive).
